29 molecules from patent publication US12059420B2 (BRISTOL-MYERS SQUIBB COMPANY, priority 2018, dated 2024) can be followed below.

pIC50: −log10 of the molar value. Where a name gives a salt, the structure may show the parent alone.

T1 sequence (P14902 whole entry): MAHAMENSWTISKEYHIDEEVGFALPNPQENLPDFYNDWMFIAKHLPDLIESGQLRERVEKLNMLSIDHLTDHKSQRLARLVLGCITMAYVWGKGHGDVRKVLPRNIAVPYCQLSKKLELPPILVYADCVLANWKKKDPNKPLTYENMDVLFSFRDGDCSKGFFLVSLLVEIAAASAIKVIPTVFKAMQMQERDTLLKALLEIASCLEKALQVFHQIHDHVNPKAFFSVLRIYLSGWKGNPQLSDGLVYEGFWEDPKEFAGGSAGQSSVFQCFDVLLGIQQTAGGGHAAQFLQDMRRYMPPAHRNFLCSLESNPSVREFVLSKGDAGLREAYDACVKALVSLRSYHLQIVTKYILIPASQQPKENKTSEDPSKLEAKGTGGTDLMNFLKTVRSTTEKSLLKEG

This assay addresses T1, human IDO1 (Homo sapiens, UniProt P14902).
T1 construct: expressed in transfected cells
Kind of assay: IDO inhibition assay in HEK293 cells stably expressing human IDO1 (kynurenine production, Ehrlich reagent, absorbance 490 nm). To be noted: 20 hours incubation with compound, 500 nM reference standard = 100% inhibition, read-out: IDO1 HEK Human IC50. It counts as cell-based. The method, then:
HEK293 cells were transfected with a pCDNA-based mammalian expression vector harboring human IDO1 cDNA (NM 002164.2) by electroporation. They were cultured in medium (DMEM with 10% FBS) containing 1 mg/ml G418 for two weeks. Clones of HEK293 cells that stably expressed human IDO1 protein were selected and expanded for IDO inhibition assay.
The human IDO1/HEK293 cells were seeded at 10,000 cells per 50 μL per well with RPMI/phenol red free media contains 10% FBS in a 384-well black wall clear bottom tissue culture plate (Matrix Technologies LLC) 100 nL of certain concentration of compound was then added to each well using ECHO liquid handling systems. The cells were incubated for 20 hours in 37° C. incubator with 5% CO2.
The compound treatments were stopped by adding trichloroacetic acid (Sigma-Aldrich) to a final concentration at 0.2%. The cell plate was further incubated at 50° C. for 30 minute. The equal volume supernatant (20 μL) and 0.2% (w/v) Ehrlich reagent (4-dimethylaminobenzaldehyde, Sigma-Aldrich) in glacial acetic acid were mixed in a new clear bottom 384-well plate. This plate was then incubated at RT for 30 minute. The absorbance at 490 nm was measured on Envision plate reader.
Compound IC50 values were calculated using the counts of 500 nM of a reference standard treatment as one hundred percent inhibition, and counts of no compound but DMSO treatment as zero percent inhibition.
As to `CCCN(Cc1ccccc1)c1cc(NC(=O)Cc2ccc(C)cc2)cc(-c2ccccc2C(=O)NS(=O)(=O)N2CCN(C)CC2)n1` [Example 25, 2-(6-(benzyl(propyl)amino)-4-(2-(p-tolyl)acetamido)pyridin-2-yl)-N-((4-methylpiperazin-1-yl)sulfonyl)benzamide], the pIC50 (in general, −log10 of the IC50, conventionally taken in molar units) is 5.54.
In the case of `CCCN(Cc1ccccc1)c1cc(NC(=O)Nc2ccc(C)cc2)cc(-c2cc(C)ccc2-c2noc(=O)[nH]2)n1` [Example 26, 1-(2-(benzyl(propyl)amino)-6-(5-methyl-2-(5-oxo-4,5-dihydro-1,2,4-oxadiazol-3-yl)phenyl)pyridin-4-yl)-3-(p-tolyl)urea], the negative logarithm of the IC50 (pIC50) is 7.93.
On to `CCCN(Cc1ccccc1)c1cc(NC(=O)Nc2ccc(C)cc2)cc(-c2ccccc2S(N)(=O)=O)n1` [Example 27, 2-(6-(benzyl (propyl)amino)-4-(3-(p-tolyl)ureido)pyridin-2-yl) benzene sulfonamide], for which the pIC50 is 6.22.
Next, `CCCN(Cc1ccccc1)c1cc(NC(=O)Cc2ccc(C)cc2)cc(-c2ccccc2-c2nc(=O)o[nH]2)n1` [Example 28, N-(2-(benzyl (propyl)amino)-6-(2-(5-oxo-2,5-dihydro-1,2,4-oxadiazol-3-yl)phenyl)pyridin-4-yl)-2-(p-tolyl)acetamide]: 7.10.
Next, `CCCN(Cc1ccccc1)c1cc(NC(=O)Cc2ccc(C)cc2)cc(-c2ccccc2C(N)=O)n1` [Example 29]: 6.21; `CCCN(Cc1ccccc1)c1cc(NC(=O)Nc2ccc(C)cc2)cc(-c2ccccc2-c2nc(=O)o[nH]2)n1` [Example 31, 1-(2-(benzyl (propyl)amino)-6-(2-(5-oxo-4,5-dihydro-1,2,4-oxadiazol-3-yl)phenyl)pyridin-4-yl)-3-(p-tolyl) urea]: 7.86; `CCCN(Cc1ccccc1)c1cc(NC(=O)Nc2ccc(C)cc2)cc(-c2ccccc2S(=O)(=O)NC(=O)c2ccccc2)n1` [Example 32, N-((2-(6-(benzyl (propyl)amino)-4-(3-(p-tolyl)ureido)pyridin-2-yl)phenyl)sulfonyl) benzamide]: 5.39.
For `CCCN(Cc1ccccc1)c1cc(NC(=O)Cc2ccc(C)cc2)cc(-c2ccccc2S(N)(=O)=O)n1` [Example 33, N-(2-(benzyl (propyl)amino)-6-(2-sulfamoylphenyl)pyridin-4-yl)-2-(p-tolyl) acetamide], the pIC50 is 6.29.
For the molecule `CCCN(Cc1ccccc1)c1cc(NC(=O)Cc2ccc(C)cc2)cc(-c2ccccc2S(=O)(=O)NC(C)=O)n1` [Example 34, N-(2-(2-(N-acetylsulfamoyl)phenyl)-6-(benzyl(propyl)amino)pyridin-4-yl)-2-(p-tolyl) acetamide], the pIC50 was 6.63.
As for `CCCN(Cc1ccccc1)c1cc(NC(=O)Nc2ccc(C)cc2)cc(-c2ccccc2S(=O)(=O)NC(C)=O)n1` [Example 35, N-((2-(6-(benzyl (propyl)amino)-4-(3-(p-tolyl)ureido)pyridin-2-yl)phenyl)sulfonyl) acetamide], the pIC50 is 6.59.
Next, `CCCN(Cc1ccccc1)c1cc(NC(=O)Nc2ccccc2C(F)(F)F)cc(-c2ccccc2-c2nnn[nH]2)n1` [Example 36, 1-(2-(2-(1H-tetrazol-5-yl)phenyl)-6-(benzyl(propyl)amino)pyridin-4-yl)-3-(2-(trifluoromethyl)phenyl)urea]: 6.69; `CCCN(Cc1ccccc1)c1cc(NC(=O)Nc2ccc(C)nn2)cc(-c2ccccc2-c2nnn[nH]2)n1` [Example 37, 1-(2-(2-(1H-tetrazol-5-yl)phenyl)-6-(benzyl(propyl)amino)pyridin-4-yl)-3-(6-methyl-pyridazin-3-yl) urea]: 5.50; `CCCN(Cc1ccccc1)c1cc(NC(=O)Nc2ccc(C)cc2)cc(-c2ccccc2C(N)=O)n1` [Example 38, 2-(6-(benzyl (propyl)amino)-4-(3-(p-tolyl)ureido)pyridin-2-yl) benzamide]: 6.52.
Regarding `CC(C)CN(Cc1ccc(F)cc1)c1cc(Nc2ccc(F)cc2)cc(-c2ccccc2-c2nnn[nH]2)n1` [Example 39, 6-(2-(1H-tetrazol-5-yl)phenyl)-N2-(4-fluorobenzyl)-N4-(4-fluorophenyl)-N2-isobutylpyridine-2,4-diamine], the pIC50 was 8.62.
Take `Cc1cnc(Nc2cc(-c3ccccc3-c3nnn[nH]3)nc(N(Cc3ccc(F)cc3)CC(C)C)c2)nc1` [Example 40, 6-(2-(1H-tetrazol-5-yl)phenyl)-N2-(4-fluorobenzyl)-N2-isobutyl-N4-(5-methylpyrimidin-2-yl)pyridine-2,4-diamine, TFA]: the pIC50 is 7.48.
`Cc1ccc(Nc2cc(-c3ccccc3-c3nnn[nH]3)nc(N(Cc3ccc(F)cc3)CC(C)C)c2)nn1` [Example 41, 6-(2-(1H-tetrazol-5-yl)phenyl)-N2-(4-fluorobenzyl)-N2-isobutyl-N4-(6-methylpyridazin-3-yl)pyridine-2,4-diamine, TFA]: the negative-log IC50 (pIC50) is 6.25.
With `CC(C)CN(Cc1ccc(F)cc1)c1cc(Nc2ccn3nccc3n2)cc(-c2ccccc2-c2nnn[nH]2)n1` [Example 42, 6-(2-(1H-tetrazol-5-yl)phenyl)-N2-(4-fluorobenzyl)-N2-isobutyl-N4-(pyrazolo[1,5-a]pyrimidin-5-yl)pyridine-2,4-diamine, TFA], the negative logarithm of the IC50 (pIC50) is 6.92.
As for `CC(C)CN(Cc1ccc(F)cc1)c1cc(Nc2nc3ccccc3s2)cc(-c2ccccc2-c2nnn[nH]2)n1` [Example 43, 6-(2-(1H-tetrazol-5-yl)phenyl)-N4-(benzo[d]thiazol-2-yl)-N2-(4-fluorobenzyl)-N2-isobutylpyridine-2,4-diamine, TFA], the pIC50 was 7.51.
Consider `CC(C)CN(Cc1ccc(F)cc1)c1cc(Nc2ncc(F)cn2)cc(-c2ccccc2-c2nnn[nH]2)n1` [Example 44, 6-(2-(1H-tetrazol-5-yl)phenyl)-N2-(4-fluorobenzyl)-N4-(5-fluoropyrimidin-2-yl)-N2-isobutylpyridine-2,4-diamine, TFA], for which the pIC50 is 7.45.
`Cc1ncccc1Nc1cc(-c2ccccc2-c2nnn[nH]2)nc(N(Cc2ccc(F)cc2)CC(C)C)c1` [Example 45, 6-(2-(1H-tetrazol-5-yl)phenyl)-N2-(4-fluorobenzyl)-N2-isobutyl-N4-(2-methylpyridin-3-yl)pyridine-2,4-diamine, TFA]: the pIC50 is 6.62.
Turning to `CC(C)CN(Cc1ccc(F)cc1)c1cc(Nc2ccc3c(c2)OCO3)cc(-c2ccccc2-c2nnn[nH]2)n1` [Example 46, 6-(2-(1H-tetrazol-5-yl)phenyl)-N4-(benzo[d][1,3]dioxol-5-yl)-N2-(4-fluorobenzyl)-N2-isobutylpyridine-2,4-diamine], the negative logarithm of the IC50 (pIC50) is 8.96.
In the case of `CC(C)CN(Cc1ccc(F)cc1)c1cc(Nc2cccc(C(F)F)n2)cc(-c2ccccc2-c2nnn[nH]2)n1` [Example 47, 6-(2-(1H-tetrazol-5-y1)phenyl)-N4-(6-(difluoromethyl)pyridin-2-yl)-N2-(4-fluorobenzyl)-N2-isobutylpyridine-2,4-diamine], the pIC50 is 7.76.
For the molecule `CC(C)CN(Cc1ccc(F)cc1)c1cc(Nc2ccc(F)cn2)cc(-c2ccccc2-c2nnn[nH]2)n1` [Example 48, 6-(2-(1H-tetrazol-5-yl)phenyl)-N2-(4-fluorobenzyl)-N4-(5-fluoropyridin-2-yl)-N2-isobutylpyridine-2,4-diamine], the pIC50 was 7.97.
Next, `Cc1cnc(Nc2cc(-c3ccccc3-c3nnn[nH]3)nc(N(Cc3ccccc3)CC(C)C)c2)cn1` [Example 49, 6-(2-(1H-tetrazol-5-yl)phenyl)-N2-benzyl-N2-isobutyl-N4-(5-methylpyrazin-2-yl)pyridine-2,4-diamine, TFA]: 7.50; `CC(C)CN(Cc1ccccc1)c1cc(Nc2ccn3nccc3n2)cc(-c2ccccc2-c2nnn[nH]2)n1` [Example 50, 6-(2-(1H-tetrazol-5-y1)phenyl)-N2-benzyl-N2-isobutyl-N4-(pyrazolo[1,5-a]pyrimidin-5-yl)pyridine-2,4-diamine]: 6.88.
Next, `Cc1cnc(Nc2cc(-c3ccccc3-c3nnn[nH]3)nc(N(Cc3ccccc3)CC(C)C)c2)nc1` [Example 51, 6-(2-(1H-tetrazol-5-yl)phenyl)-N2-benzyl-N2-isobutyl-N4-(5-methylpyrimidin-2-yl)pyridine-2,4-diamine]: 7.22; `CC(C)CN(Cc1ccccc1)c1cc(Nc2nnc(-c3ccccc3)s2)cc(-c2ccccc2-c2nnn[nH]2)n1` [Example 52, 6-(2-(1H-tetrazol-5-yl)phenyl)-N2-benzyl-N2-isobutyl-N4-(5-phenyl-1,3,4-thiadiazol-2-yl)pyridine-2,4-diamine]: 6.72; `CC(C)CN(Cc1ccccc1)c1cc(Nc2nccc(N3CCOCC3)n2)cc(-c2ccccc2-c2nnn[nH]2)n1` [Example 53, 6-(2-(1H-tetrazol-5-yl)phenyl)-N2-benzyl-N2-isobutyl-N4-(4-morpholinopyrimidin-2-yl)pyridine-2,4-diamine, TFA]: 8.31.
For the molecule `CC(C)CN(Cc1ccccc1)c1cc(Nc2ncc(F)cn2)cc(-c2ccccc2-c2nnn[nH]2)n1` [Example 55, 6-(2-(1H-tetrazol-5-yl)phenyl)-N2-benzyl-N4-(5-fluoropyrimidin-2-yl)-N2-isobutylpyridine-2,4-diamine, 1.5 TFA], the pIC50 is 7.94.
